Experimental data from patent publication US11149020B2, “MAP kinase modulators and uses thereof” (The Trustees of Columbia University in the City of New York, priority 2013, dated 2021).

What was measured:
APP/PS1 mice [1] = assay: LTP in APP/PS1 mice; type: in vivo, mouse; conditions: 2.5 mg/kg, daily, p.o., from 2 months until 3-4 months of age
[2] = test system: synaptic depression induced by OGD; assay: Oxygen glucose deprivation (OGD) in entorhinal slices, field potentials; conditions: 10 μM, 10 min OGD
Procedure: Slice preparation. Animals were anesthetized using urethane (20% solution, 1 mL/100 g body weight) via intraperitoneal injection and then decapitated after disappearance of the tail pinch reflex. After brain removal, horizontal sections (400 μm in thickness), containing the entorhinal area, were made on a Vibratome. All steps were performed in ice-cold oxygenated ACSF solution. Before recording, slices were stored for at least 1 h in a recovery chamber containing oxygenated ACSF solution at room temperature. For electrophysiology, slices were perfused at a rate of 2.5-3 mL/min with oxygenated ACSF at 33±1° C. […] The amplitude of FP was monitored every 20 s and averaged every three responses by online data acquisition software. Effects on synaptic function were evaluated either during ischemia (as the average of FPs amplitude during the last 3 min of 10 min OGD application) or as the recovery of FPs calculated as the averaged relative amplitude of FPs respect to the baseline values after reintroduction of regular ACSF (from 41st to 50th min after the end of OGD). […]

[3] = test system: APP/PS1 transgenic and APP/PS1 knock-in mice; assay: β-amyloid plaque count, 6E10 immunohistochemistry; type: in vivo, mouse
Procedure: Histopathology. Immunohistochemistry was performed using the Ventana BenchMark Ultra automated platform. Tissue sections were first deparaffinized using Ventana's “ez-prep” solution. Antigen retrieval was performed by treatment at 95° C. for 54 minutes using Ventana's CC1 (pH 7.3) solution, followed by treatment with 0.3% hydrogen peroxide to block endogenous peroxidase. Tissue sections were then incubated in protein-free block (Biocare's background sniper) for 15 min to inhibit nonspecific binding. Primary antibody (anti-Aβ 6E10 at 1:400, Biocare Medical) was incubated for 32 min at room temperature. […] A board-certified neuropathologist, who was blinded to the treatment versus the control group, analyzed a sagittal section from each mouse and counted the total number of well-formed β-amyloid plaques.
MW-150 treatment improves cognitive performance in the absence of effect on Aβ plaque burden. […] (FIG. 26C) Quantification by a board-certified neuropathologist blinded to the treatment groups was done by analysis of a brain sagittal section from each mouse in which the total number of well-formed β-amyloid plaques in the entire section were counted. […] (FIG. 26D) In a separate experiment with APP/PS1 knock-in (KI) mice, Aβ plaques were quantified from KI mice treated with MW-150 or vehicle.

[4] = Repeat dosing, observation of adverse events; type: in vivo, mouse; conditions: aged or diseased animals
Description: Further, the results in a battery of behavioral tests are consistent with a true hippocampus-dependent mechanism of action in attenuation of memory deficits. […] The selective improvement in cognitive behavior was also brought about with no effect on amyloid plaque load (Wilcock, D. M., and Colton, C. A. (2009) Immunotherapy, vascular pathology and microhemorrhages in transgenic mice. CNS Neurol. Disord.: Drug Targets 8, 50-64, herein incorporated by reference in its entirety).

APP/PS1 mice [5] = assay: RAWM in APP/PS1 mice; conditions: 2.5 mg/kg, daily, p.o., from 2 months of age
APP/PS1 mice [6] = assay: Fear conditioning (contextual and cued) in APP/PS1 mice; conditions: 2.5 mg/kg, daily, p.o., from 2 months of age
panel of 158 GPCRs = assay: Millipore GPCR Profiler cell-based functional screen (calcium flux FLIPR)
Description: Compounds were screened in vivo using a standard dose escalation screen in mice coupled with clinical observation and testing based on the SHIRPA mouse phenotype assay paradigm (Mammalian Genome 8, 711-719 SHIRPA (1997); herein incorporated by reference in its entirety). To obtain insight into the potential for off-target activity with the largest known family of small molecule drug targets, G-protein coupled receptors (GPCRs), a cell-based functional screen of the final title compounds was done. The Millipore® GPCR Profiler screen employs the ChemiScreen GPCR stable cell line technology used for real-time calcium flux FLIPR assays on a panel of 158 GPCRs. The NCBI Entrez identifier for each GPCR is provided at the vendor site (www.millipore.com). Follow-up validation of any initial hits as being true positives or negatives was done as described above for protein kinases by testing the concentration dependence of any cellular effects.

[7] = test system: murine microglial BV-2 cell line; assay: cells; type: cell-based
[8] = test system: LPS-induced IL-1β in brain cortex; assay: In vivo LPS-induced brain cortex IL-1β; parameters: species or system mouse; conditions: oral administration, 20 mg/Kg, 6 hrs after LPS
[9] = test system: Aβ42-treated hippocampal slices; assay: LTP in hippocampal slices treated with oligomeric Aβ42; parameters: species or system mouse; conditions: 10 μM, 200 nM Aβ42
Aβ42-infused mice [10] = assay: 2-day radial arm water maze (RAWM) in Aβ42-infused mice; type: in vivo, mouse; conditions: 5 mg/Kg, i.p.
Aβ42-infused mice [11] = assay: Contextual fear conditioning in Aβ42-infused mice; type: in vivo, mouse; conditions: 5 mg/Kg, i.p.
>291 protein kinases = assay: Millipore Profiler large-scale kinome screen

Structure (SMILES) | LTP defect in APP/PS1 mice (APP/PS1 mice [1]) | synaptic depression induced by OGD [2] | amyloid plaque burden [3] | adverse events with repeat dosing [4] | spatial/reference memory defect (RAWM) in APP/PS1 mice (APP/PS1 mice [5]) | contextual fear memory defect in APP/PS1 mice (APP/PS1 mice [6]) | GPCR screen result (panel of 158 GPCRs) | IL-1β production with diverse TLR ligands ([7]; BV-2 cells, TLR2, TLR4, TLR7/8, TLR9 ligands) | IC50 ([7]; Mus musculus, LPS-stimulated BV-2 cells, 18 hrs, read-out: IC50 using inhibition of IL-1β overproduction as end point) [nM] | LPS-induced IL-1β levels in brain cortex [8] | LTP deficit in Aβ42-treated slices [9] | reference memory deficit (RAWM) in Aβ42-infused mice (Aβ42-infused mice [10]) | contextual fear memory deficit in Aβ42-infused mice (Aβ42-infused mice [11]) | large scale kinase screen result (>291 protein kinases)
CN1CCN(c2cc(-c3ccncc3)c(-c3ccc4ccccc4c3)nn2)CC1 [27 (MW-150), 6-(4-methylpiperazine-1-yl)-3-(naphthalen-2-yl)-4-(pyridin-4-yl)pyridazine] | rescue defects in LTP | ameliorated | no effects of MW-150 treatment on the amyloid plaque burden | did not bring about any observed adverse events | rescue defects in spatial memory | rescue the defect in contextual fear learning | – | – | – | – | – | – | – | –
CN(C)c1cc(-c2ccncc2)c(-c2ccc3ccccc3c2)nn1 [MW-108 (2)] | – | – | – | – | – | – | negative | also seen in BV-2 cells stimulated with diverse TLR ligands | 610 ± 20 | restored IL-1β levels in the brain cortex back towards control | ameliorated the Aβ-induced electrophysiological deficit | rescued the memory defects | prevented by MW-108 (2) administration | negative
